Measured values from US10653146B2, “Microbiocidal oxadiazole derivatives” (SYNGENTA PARTICIPATIONS AG, priority 2016, dated 2020).

Assays:
[1] = system: Puccinia recondita f. Sp. Tritici; test: Fungicidal activity against Puccinia recondita f. sp. tritici / wheat / leaf disc preventative (brown rust); assay type: in vivo; conditions: foliar, 200 ppm in the applied formulation, wheat leaf segments cv. Kanzler, inoculated 1 day after application, assessed 7 to 9 days after application, read-out: disease control compared to untreated control leaf disks
Protocol: Leaf disks or leaf segments of various plant species are cut from plants grown in a greenhouse. The cut leaf disks or segments are placed in multiwell plates (24-well format) onto water agar. The leaf disks are sprayed with a test solution before (preventative) or after (curative) inoculation. Compounds to be tested are prepared as DMSO solutions (max. 10 mg/ml) which are diluted to the appropriate concentration with 0.025% Tween20 just before spraying. The inoculated leaf disks or segments are incubated under defined conditions (temperature, relative humidity, light, etc.) according to the respective test system. A single evaluation of disease level is carried out 3 to 14 days after inoculation, depending on the pathosystem. Percent disease control relative to the untreated check leaf disks or segments is then calculated. Wheat leaf segments cv. Kanzler were placed on agar in multiwell plates (24-well format) and sprayed with the formulated test compound diluted in water. The leaf disks were inoculated with a spore suspension of the fungus 1 day after application. The inoculated leaf segments were incubated at 19° C. and 75% relative humidity (rh) under a light regime of 12 hours light/12 hours darkness in a climate cabinet and the activity of a compound was assessed as percent disease control compared to untreated when an appropriate level of disease damage appears in untreated check leaf segments (7 to 9 days after application). The following compounds at 200 ppm in the applied formulation give at least 80% disease control in this test when compared to untreated control leaf disks under the same conditions, which show extensive disease development.

[2] = system: Glomerella lagenarium (Colletotrichum lagenarium); test: Fungicidal activity against Glomerella lagenarium (Colletotrichum lagenarium) liquid culture / cucumber / preventative (anthracnose); assay type: cell-based; conditions: Colletotrichum orbiculare; 20 ppm in the applied formulation; liquid culture in PDB, 24° C.; 3 to 4 days after application; read-out: disease control compared to untreated control (inhibition of growth measured photometrically)
Protocol: Mycelia fragments or conidia suspensions of a fungus prepared either freshly from liquid cultures of the fungus or from cryogenic storage, are directly mixed into nutrient broth. DMSO solutions of the test compound (max. 10 mg/ml) are diluted with 0.025% Tween20 by a factor of 50 and 10 μl of this solution is pipetted into a microtiter plate (96-well format). The nutrient broth containing the fungal spores/mycelia fragments is then added to give an end concentration of the tested compound. The test plates are incubated in the dark at 24° C. and 96% relative humidity. The inhibition of fungal growth is determined photometrically after 2 to 7 days, depending on the pathosystem, and percent antifungal activity relative to the untreated check is calculated.
Conidia of the fungus from cryogenic storage are directly mixed into nutrient broth (PDB—potato dextrose broth). After placing a (DMSO) solution of test compound into a microtiter plate (96-well format), the nutrient broth containing the fungal spores is added. The test plates are incubated at 24° C. and the inhibition of growth is measured photometrically 3 to 4 days after application.
The following compounds at 20 ppm in the applied formulation give at least 80% disease control in this test when compared to untreated control under the same conditions, which show extensive disease development.

[3] = system: Puccinia recondite f. Sp. Tritici; test: Fungicidal activity against Puccinia recondite f. sp. tritici / wheat / leaf disc curative (brown rust); assay type: in vivo; conditions: foliar, 200 ppm in the applied formulation, wheat leaf segments cv. Kanzler, applied 1 day after inoculation, assessed 6 to 8 days after application, read-out: disease control compared to untreated control leaf disks
Protocol: Leaf disks or leaf segments of various plant species are cut from plants grown in a greenhouse. The cut leaf disks or segments are placed in multiwell plates (24-well format) onto water agar. The leaf disks are sprayed with a test solution before (preventative) or after (curative) inoculation. Compounds to be tested are prepared as DMSO solutions (max. 10 mg/ml) which are diluted to the appropriate concentration with 0.025% Tween20 just before spraying. The inoculated leaf disks or segments are incubated under defined conditions (temperature, relative humidity, light, etc.) according to the respective test system. A single evaluation of disease level is carried out 3 to 14 days after inoculation, depending on the pathosystem. Percent disease control relative to the untreated check leaf disks or segments is then calculated.
Wheat leaf segments cv. Kanzler are placed on agar in multiwell plates (24-well format). The leaf segments are then inoculated with a spore suspension of the fungus. Plates were stored in darkness at 19° C. and 75% relative humidity. The formulated test compound diluted in water was applied 1 day after inoculation. The leaf segments were incubated at 19° C. and 75% relative humidity under a light regime of 12 hours light/12 hours darkness in a climate cabinet and the activity of a compound was assessed as percent disease control compared to untreated when an appropriate level of disease damage appears in untreated check leaf segments (6 to 8 days after application).
The following compounds at 200 ppm in the applied formulation give at least 80% disease control in this test when compared to untreated control leaf disks under the same conditions, which show extensive disease development.

O=C(NCCO)C(=O)c1ccc(-c2noc(C(F)(F)F)n2)cc1 [Compound 1.1, N-(2-hydroxy-ethyl)-2-oxo-2-[4-[5-(trifluoromethyl)-1,2,4-oxadiazol-3-yl]phenyl]acetamide]
pest or weed control at 200 ppm [1]: ≥ 80%
melting point: 147 to 148 °C
inhibition at 20 ppm [2]: ≥ 80%
pest or weed control at 200 ppm [3]: ≥ 80%

CN(C)CCNC(=O)C(=O)c1ccc(-c2noc(C(F)(F)F)n2)cc1 [Compound 1.2, N-[2-(dimethyl-amino)ethyl]-2-oxo-2-[4-[5-(trifluoromethyl)-1,2,4-oxadiazol-3-yl]phenyl]acetamide]
inhibition at 20 ppm [2]: ≥ 80%

CON1CCN(C(=O)C(=O)c2ccc(-c3noc(C(F)(F)F)n3)cc2)CC1 [Compound 1.3, 1-(4-methoxypiperazin-1-yl)-2-[4-[5-(trifluoromethyl)-1,2,4-oxadiazol-3-yl]phenyl]ethane-1,2-dione]
pest or weed control at 200 ppm [1]: ≥ 80%
inhibition at 20 ppm [2]: ≥ 80%

O=C(NOCC(F)F)C(=O)c1ccc(-c2noc(C(F)(F)F)n2)cc1 [Compound 1.4, N-(2,2-difluoroethoxy)-2-oxo-2-[4-[5-(trifluoromethyl)-1,2,4-oxadiazol-3-yl]phenyl]acetamide]
pest or weed control at 200 ppm [1]: ≥ 80%
inhibition at 20 ppm [2]: ≥ 80%

CN(C)C(=O)C(=O)c1ccc(-c2noc(C(F)(F)F)n2)cc1 [Compound 1.5, N,N-dimethyl-2-oxo-2-[4-[5-(trifluoromethyl)-1,2,4-oxadiazol-3-yl]phenyl]acetamide]
pest or weed control at 200 ppm [1]: ≥ 80%
inhibition at 20 ppm [2]: ≥ 80%
pest or weed control at 200 ppm [3]: ≥ 80%

C=CCONC(=O)C(=O)c1ccc(-c2noc(C(F)(F)F)n2)cc1 [Compound 1.6, N-allyloxy-2-oxo-2-[4-[5-(trifluoromethyl)-1,2,4-oxadiazol-3-yl]phenyl]acetamide]
pest or weed control at 200 ppm [1]: ≥ 80%

CNC(=O)CNC(=O)C(=O)c1ccc(-c2noc(C(F)(F)F)n2)cc1 [Compound 1.7, N-[2-(methyl-amino)-2-oxo-ethyl]-2-oxo-2-[4-[5-(trifluoromethyl)-1,2,4-oxadiazol-3-yl]phenyl]acetamide]
pest or weed control at 200 ppm [1]: ≥ 80%
melting point: 167 to 168 °C
inhibition at 20 ppm [2]: ≥ 80%
pest or weed control at 200 ppm [3]: ≥ 80%

O=C(NCCNC(=O)C1CC1)C(=O)c1ccc(-c2noc(C(F)(F)F)n2)cc1 [Compound 1.8, N-[2-[[2-oxo-2-[4-[5-(trifluoromethyl)-1,2,4-oxadiazol-3-yl]phenyl]acet-yl]amino]eth-yl]cyclopropane-carboxamide]
pest or weed control at 200 ppm [1]: ≥ 80%
melting point: 209 to 210 °C
inhibition at 20 ppm [2]: ≥ 80%

Cl.NCCNC(=O)C(=O)c1ccc(-c2noc(C(F)(F)F)n2)cc1 [Compound 1.9, 2-[[2-oxo-2-[4-[5-(trifluoromethyl)-1,2,4-oxadiazol-3-yl]phenyl]acet-yl]amino]ethyl-ammonium; chloride]
pest or weed control at 200 ppm [1]: ≥ 80%
melting point: 213 to 214 °C
inhibition at 20 ppm [2]: ≥ 80%
pest or weed control at 200 ppm [3]: ≥ 80%

O=C(NCC(F)F)C(=O)c1ccc(-c2noc(C(F)(F)F)n2)cc1 [Compound 1.10, N-(2,2-difluoroethyl)-2-oxo-2-[4-[5-(trifluoromethyl)-1,2,4-oxadiazol-3-yl]phenyl]acetamide]
pest or weed control at 200 ppm [1]: ≥ 80%
inhibition at 20 ppm [2]: ≥ 80%
pest or weed control at 200 ppm [3]: ≥ 80%

CC(=O)NCCNC(=O)C(=O)c1ccc(-c2noc(C(F)(F)F)n2)cc1 [Compound 1.11, N-(2-acetamidoethyl)-2-oxo-2-[4-[5-(trifluoromethyl)-1,2,4-oxadiazol-3-yl]phenyl]acetamide]
pest or weed control at 200 ppm [1]: ≥ 80%
inhibition at 20 ppm [2]: ≥ 80%
pest or weed control at 200 ppm [3]: ≥ 80%

CCCCNC(=O)C(=O)c1ccc(-c2noc(C(F)(F)F)n2)cc1 [Compound 1.12, N-butyl-2-oxo-2-[4-[5-(trifluoromethyl)-1,2,4-oxadiazol-3-yl]phenyl]acetamide]
pest or weed control at 200 ppm [1]: ≥ 80%
melting point: 65.1 to 68.2 °C
inhibition at 20 ppm [2]: ≥ 80%
pest or weed control at 200 ppm [3]: ≥ 80%

CCCN(C)C(=O)C(=O)c1ccc(-c2noc(C(F)(F)F)n2)cc1 [Compound 1.22, N-methyl-2-oxo-N-propyl-2-[4-[5-(trifluoromethyl)-1,2,4-oxadiazol-3-yl]phenyl]acetamide]
pest or weed control at 200 ppm [1]: ≥ 80%
inhibition at 20 ppm [2]: ≥ 80%
pest or weed control at 200 ppm [3]: ≥ 80%

CSCCNC(=O)C(=O)c1ccc(-c2noc(C(F)(F)F)n2)cc1 [Compound 1.23, N-(2-methyl-sulfanylethyl)-2-oxo-2-[4-[5-(trifluoromethyl)-1,2,4-oxadiazol-3-yl]phenyl]acetamide]
pest or weed control at 200 ppm [1]: ≥ 80%
inhibition at 20 ppm [2]: ≥ 80%
pest or weed control at 200 ppm [3]: ≥ 80%

O=C(NCC1COCCO1)C(=O)c1ccc(-c2noc(C(F)(F)F)n2)cc1 (centres unmarked) [Compound 1.28, N-(1,4-dioxan-2-ylmethyl)-2-oxo-2-[4-[5-(trifluoromethyl)-1,2,4-oxadiazol-3-yl]phenyl]acetamide]
pest or weed control at 200 ppm [1]: ≥ 80%
inhibition at 20 ppm [2]: ≥ 80%
pest or weed control at 200 ppm [3]: ≥ 80%

Cc1ccsc1CN(C)C(=O)C(=O)c1ccc(-c2noc(C(F)(F)F)n2)cc1 [Compound 1.29, N-methyl-N-[(3-methyl-2-thienyl)methyl]-2-oxo-2-[4-[5-(trifluoromethyl)-1,2,4-oxadiazol-3-yl]phenyl]acetamide]
inhibition at 20 ppm [2]: ≥ 80%

COCCN(CCOC)C(=O)C(=O)c1ccc(-c2noc(C(F)(F)F)n2)cc1 [Compound 1.30, N,N-bis(2-methoxyethyl)-2-oxo-2-[4-[5-(trifluoromethyl)-1,2,4-oxadiazol-3-yl]phenyl]acetamide]
inhibition at 20 ppm [2]: ≥ 80%
pest or weed control at 200 ppm [3]: ≥ 80%

CCON(C)C(=O)C(=O)c1ccc(-c2noc(C(F)(F)F)n2)cc1 [Compound 1.32, N-ethoxy-N-methyl-2-oxo-2-[4-[5-(trifluoromethyl)-1,2,4-oxadiazol-3-yl]phenyl]acetamide]
pest or weed control at 200 ppm [1]: ≥ 80%
inhibition at 20 ppm [2]: ≥ 80%
pest or weed control at 200 ppm [3]: ≥ 80%

CN(C(=O)C(=O)c1ccc(-c2noc(C(F)(F)F)n2)cc1)c1ccccc1 [Compound 1.33, N-methyl-2-oxo-N-phenyl-2-[4-[5-(trifluoromethyl)-1,2,4-oxadiazol-3-yl]phenyl]acetamide]
inhibition at 20 ppm [2]: ≥ 80%

COC(=O)CNC(=O)C(=O)c1ccc(-c2noc(C(F)(F)F)n2)cc1 [Compound 1.36, methyl 2-[[2-oxo-2-[4-[5-(trifluoromethyl)-1,2,4-oxadiazol-3-yl]phenyl]acet-yl]amino]acetate]
melting point: 89 to 90 °C
inhibition at 20 ppm [2]: ≥ 80%
pest or weed control at 200 ppm [3]: ≥ 80%

COCCNC(=O)C(=O)c1ccc(-c2noc(C(F)(F)F)n2)cc1 [Compound 1.40, N-(2-methoxy-ethyl)-2-oxo-2-[4-[5-(trifluoromethyl)-1,2,4-oxadiazol-3-yl]phenyl]acetamide]
pest or weed control at 200 ppm [1]: ≥ 80%
inhibition at 20 ppm [2]: ≥ 80%
pest or weed control at 200 ppm [3]: ≥ 80%
